Where two headings read alike, the source gives them in different places. Starred links: 1 amine or outer side, 2 acyl side, 3 side chain; linkers in the order of their positions; H or OH if unused. Non-standard residues stand in square brackets, D forms with d. Residues, ends and D or L forms follow the SMILES beside them. Groups on a side chain read outwards from the residue. *: point of attachment. C18 diacid = O=C(O)CCCCCCCCCCCCCCCCC(=O)*; γGlu = O=C(O)[C@H](CCC(=O)[*:2])N[*:1]; εLys = N[C@@H](CCCCN[*:1])C(=O)[*:2]; Aib = CC(C)(N)C(=O)O

For one data set, the target named is T1, human GLP-1 receptor (Homo sapiens, UniProt P43220).
T1 construct: expressed in transfected cells; host or cells: BHK (parent line BHKTS13), clone BHK CRE luc2P hGLP-1R
In words: In vitro functional potency, CRE luciferase reporter gene assay, whole BHK cells expressing hGLP-1R. It counts as cell-based. The settings on record: BHK CRE luc2P hGLP-1R cells. A general note: A reporter such as luciferase makes a cellular process visible.

The target in a further data set is T2, human GIP receptor (Homo sapiens, UniProt P48546).
T2 construct: expressed in transfected cells; host or cells: BHK (parent line BHKTS13), clone BHK CRE luc2P hGIPR
T2 sequence (P48546 22-466): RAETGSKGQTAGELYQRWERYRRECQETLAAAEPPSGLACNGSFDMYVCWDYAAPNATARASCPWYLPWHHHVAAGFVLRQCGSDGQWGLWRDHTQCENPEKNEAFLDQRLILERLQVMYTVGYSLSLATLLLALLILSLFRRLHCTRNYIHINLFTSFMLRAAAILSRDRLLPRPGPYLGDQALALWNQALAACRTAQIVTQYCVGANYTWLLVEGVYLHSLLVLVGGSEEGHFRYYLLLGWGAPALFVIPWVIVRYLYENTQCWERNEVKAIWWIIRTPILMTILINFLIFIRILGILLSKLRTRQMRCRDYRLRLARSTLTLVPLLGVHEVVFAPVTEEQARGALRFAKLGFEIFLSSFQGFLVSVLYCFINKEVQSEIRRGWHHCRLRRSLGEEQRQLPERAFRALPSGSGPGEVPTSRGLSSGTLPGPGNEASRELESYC
The data set is described as follows: In vitro functional potency, CRE luciferase reporter gene assay, whole BHK cells expressing hGIPR. In kind it is cell-based. As to conditions: BHK CRE luc2P hGIPR cells.

Data set [1] in a line: Pharmacokinetic study in dogs, oral dosing of tablet compositions with SNAC. In kind it is in vivo, Beagle dogs. As to conditions: for Tmax / half-life: male. In short, it runs like this: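 The tablets held 3-4 mg compound plus 100-300 mg SNAC and were given to fasted male beagles (6-8 per group); non-compartmental PK per animal.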
For data set [2] the following is noted: in vivo; cited from earlier work.
The mark [3] stands for this setting: hGLP-1R, CRE Luc 1% HSA EC50, 1% HSA.
[4] abbreviates: hGIPR, CRE Luc 1% HSA EC50, 1% HSA.

T1 sequence (P43220 24-463): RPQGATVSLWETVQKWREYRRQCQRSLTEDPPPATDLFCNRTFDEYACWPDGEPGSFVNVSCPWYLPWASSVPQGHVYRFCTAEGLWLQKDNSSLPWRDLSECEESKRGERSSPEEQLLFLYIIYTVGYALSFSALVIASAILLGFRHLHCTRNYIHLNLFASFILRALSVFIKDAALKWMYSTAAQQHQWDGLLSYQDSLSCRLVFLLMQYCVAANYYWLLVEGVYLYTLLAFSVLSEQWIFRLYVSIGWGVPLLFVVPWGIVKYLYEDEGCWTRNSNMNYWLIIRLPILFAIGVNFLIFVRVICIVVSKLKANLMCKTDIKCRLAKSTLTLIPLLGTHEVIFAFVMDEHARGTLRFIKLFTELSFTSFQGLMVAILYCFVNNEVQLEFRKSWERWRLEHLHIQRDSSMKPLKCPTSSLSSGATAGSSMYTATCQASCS

On to `CC[C@H](C)[C@H](NC(=O)[C@H](Cc1ccccc1)NC(=O)[C@H](CCC(=O)O)NC(=O)[C@H](CCCNC(=N)N)NC(=O)[C@H](C)NC(=O)[C@H](C)NC(=O)[C@H](CCC(N)=O)NC(=O)[C@H](CCCCNC(=O)[C@@H](N)CCCCNC(=O)[C@@H](N)CCCCNC(=O)CC[C@H](NC(=O)CCCCCCCCCCCCCCCCC(=O)O)C(=O)O)NC(=O)[C@H](CCC(=O)O)NC(=O)[C@H](CC(C)C)NC(=O)[C@H](Cc1ccc(O)cc1)NC(=O)[C@@H](NC(=O)[C@H](CO)NC(=O)[C@H](Cc1ccc(O)cc1)NC(=O)[C@H](CC(=O)O)NC(=O)[C@H](CO)NC(=O)[C@@H](NC(=O)[C@H](Cc1ccccc1)NC(=O)[C@@H](NC(=O)CNC(=O)[C@H](CCC(=O)O)NC(=O)C(C)(C)NC(=O)[C@@H](N)Cc1ccc(O)cc1)[C@@H](C)O)[C@@H](C)O)[C@@H](C)CC)C(=O)N[C@@H](CC(N)=O)C(=O)N[C@@H](Cc1c[nH]c2ccccc12)C(=O)N[C@@H](CC(C)C)C(=O)N[C@@H](CC(C)C)C(=O)N[C@@H](C)C(=O)NCC(=O)NCC(=O)N1CCC[C@H]1C(=O)N[C@@H](CO)C(=O)N[C@@H](CO)C(=O)NCC(=O)N[C@@H](C)C(=O)N1CCC[C@H]1C(=O)N1CCC[C@H]1C(=O)N1CCC[C@H]1C(=O)N[C@@H](CO)C(=O)O` [Compound No. 11] (H-Y[Aib]EGTFTSDYSIYLEK([εLys-εLys-γGlu-C18 diacid])QAAREFINWLLAGGPSSGAPPPS-OH; N-terminus assumed), for which the 50% effective concentration (EC50) (as a rule, the concentration giving half of the maximal effect) on human GLP-1 receptor (0% HSA, read-out: hGLP-1R, CRE Luc 0% HSA EC50) turned out to be 3.3 pM; at human GLP-1 receptor (setting [3]) it was 132 pM; at human GIP receptor (0% HSA, read-out: hGIPR, CRE Luc 0% HSA EC50), 9.9 pM; on human GIP receptor (setting [4]), 450 pM. In data set [1] (dog, in vivo, po), this compound displayed an AUC/Dose of 7.1 kg·h/L. Besides, the time of peak concentration (Tmax) (usually the time at which the peak concentration occurs) in data set [1] (beagle, dog, in vivo, po, Tmax) is 1.4 h. This compound gave a half-life in data set [1] (beagle, dog, in vivo, po, t1/2) of 34 h.

For the compound `CC[C@H](C)[C@H](NC(=O)[C@H](Cc1ccccc1)NC(=O)[C@H](CCC(=O)O)NC(=O)[C@H](CCCNC(=N)N)NC(=O)[C@H](C)NC(=O)[C@H](C)NC(=O)[C@H](CCC(N)=O)NC(=O)[C@H](CCCCNC(=O)[C@@H](N)CCCCNC(=O)[C@@H](N)CCCCNC(=O)CC[C@H](NC(=O)CCCCCCCCCCCCCCCCC(=O)O)C(=O)O)NC(=O)[C@H](CCC(=O)O)NC(=O)[C@H](CC(C)C)NC(=O)[C@H](Cc1ccc(O)cc1)NC(=O)[C@@H](NC(=O)[C@H](CO)NC(=O)[C@H](Cc1ccc(O)cc1)NC(=O)[C@H](CC(=O)O)NC(=O)[C@H](CO)NC(=O)[C@@H](NC(=O)[C@H](Cc1ccccc1)NC(=O)[C@@H](NC(=O)CNC(=O)[C@H](CCC(=O)O)NC(=O)C(C)(C)NC(=O)[C@@H](N)Cc1ccc(O)cc1)[C@@H](C)O)[C@@H](C)O)[C@@H](C)CC)C(=O)N[C@@H](CCC(=O)O)C(=O)N[C@@H](Cc1c[nH]c2ccccc12)C(=O)N[C@@H](CC(C)C)C(=O)N[C@@H](CC(C)C)C(=O)N[C@@H](CCCNC(=N)N)C(=O)NCC(=O)NCC(=O)N1CCC[C@H]1C(=O)N[C@@H](CCC(=O)O)C(=O)N[C@@H](CO)C(=O)NCC(=O)N[C@@H](C)C(=O)N1CCC[C@H]1C(=O)N1CCC[C@H]1C(=O)N1CCC[C@H]1C(=O)N[C@@H](CO)C(=O)O` [Compound No. 13] (H-Y[Aib]EGTFTSDYSIYLEK([εLys-εLys-γGlu-C18 diacid])QAAREFIEWLLRGGPESGAPPPS-OH), the concentration for a half-maximal effect (EC50) was determined as 7.4 pM on human GLP-1 receptor (hGLP-1R, CRE Luc 0% HSA EC50, 0% HSA); 204 pM on human GLP-1 receptor (setting [3]); 13.9 pM at human GIP receptor (hGIPR, CRE Luc 0% HSA EC50, 0% HSA); 257 pM at human GIP receptor (setting [4]). Also, the half-life in data set [1] (dog, in vivo, oral tablet, SNAC 100 mg, test substance 3 mg, Beagle dogs, harmonic mean, read-out: t1/2 (converted)) is 60 h. For the same compound, the Tmax in data set [1] (dog, in vivo, oral tablet, SNAC 100 mg, test substance 3 mg, Beagle dogs, median, read-out: Tmax) came to 1.5 h. For the same compound, in data set [1] (oral tablet, SNAC 100 mg, test substance 3 mg, Beagle dogs, arithmetic mean), the AUC/Dose is 14.8 kg·h/L.

Turning to “hGLP-1: human glucagon-like peptide 1, native hormone whose half-life in man is cited from Meier et al.”, the “half-life measured in man” value in data set [2] was 2 to 4 min.

The values above are taken from patent publication US20230120597A1, “CO-AGONISTS AT GLP-1 AND GIP RECEPTORS SUITABLE FOR ORAL DELIVERY” (Novo Nordisk A/S, priority 2020, published 2023).
